Results: ChEMBL document CHEMBL6103539, “A critical analysis of design, binding pattern and SAR of benzo-fused heteronuclear compounds as VEGFR-2 inhibitors” (Bioorg Med Chem, 2024)
Blank lines part the entries; values can stand above or below the compound they belong to.

Assays:
[1] = system: A549; test: Cytotoxicity against human A549 cells assessed as reduction in cell growth incubated for 24 hrs by MTT assay; type: functional, cell-based; settings: A549, 24 h
[2] = system: NCI-H460; test: Cytotoxicity against human NCI-H460 cells assessed as reduction in cell growth incubated for 24 hrs by MTT assay; type: functional, cell-based; settings: NCI-H460, 24 h
[3] = molecular target: T1, Vascular endothelial growth factor receptor 2 (Homo sapiens, UniProt P35968); test: Inhibition of GST-tagged human recombinant VEGFR2 at 10 uM using Poly(4:1 Glu, Tyr) as substrate by Kinase-Glo Max reagent based luminescence analysis relative to control
[4] = system: HepG2; test: cells; settings: Homo sapiens, HepG2, 72 h
Description: Cytotoxicity against human HepG2 cells assessed as reduction in cell viability incubated for 72 hrs by MTT assay

[5] = system: HCT-116; test: cells; settings: Homo sapiens, HCT-116, 72 h
Description: Cytotoxicity against human HCT-116 cells assessed as reduction in cell viability incubated for 72 hrs by MTT assay

[6] = system: MCF7; test: cells; settings: Homo sapiens, MCF7, 72 h
Description: Cytotoxicity against human MCF7 cells assessed as reduction in cell viability incubated for 72 hrs by MTT assay

[7] = molecular target: T1, Vascular endothelial growth factor receptor 2; test: Inhibition of VEGFR-2 (unknown origin)
[8] = system: HCT-116; test: Anticancer activity against human HCT-116 cells; type: functional, cell-based
[9] = system: HepG2; test: Anticancer activity against human HepG2 cells; type: functional, cell-based
[10] = system: MCF7; test: Anticancer activity against human MCF7 cells; type: functional, cell-based
[11] = system: MCF7; test: Antiproliferative activity against human MCF7 cells assessed as cell growth inhibition measured for 24 hrs by MTT assay; type: functional, cell-based; settings: MCF7, 24 h
[12] = system: HCT-116; test: Antiproliferative activity against human HCT-116 cells assessed as cell growth inhibition measured for 24 hrs by MTT assay; type: functional, cell-based; settings: HCT-116, 24 h
[13] = system: HepG2; test: Antiproliferative activity against human HepG2 cells assessed as cell growth inhibition measured for 24 hrs by MTT assay; type: functional, cell-based; settings: HepG2, 24 h
[14] = molecular target: T1, Vascular endothelial growth factor receptor 2; test: Inhibition of VEGFR-2 (unknown origin) at 1 uM by ELISA method relative to control
[15] = system: HeLa; test: Cytotoxicity against human HeLa cells assessed as reduction in cell viability incubated for 72 hrs by CCK-8 assay; type: functional, cell-based
[16] = system: HT-29; test: Cytotoxicity against human HT-29 cells assessed as reduction in cell viability incubated for 72 hrs by CCK-8 assay; type: functional, cell-based; settings: HT-29, 72 h
[17] = Cytotoxicity against human HUVEC cells assessed as reduction in cell viability incubated for 72 hrs by CCK-8 assay; type: toxicity, cell-based
[18] = Cytotoxicity against human A549 cells assessed as reduction in cell viability incubated for 72 hrs by CCK-8 assay; type: toxicity, cell-based
[19] = Cytotoxicity against human MDA-MB-435 cells assessed as reduction in cell viability incubated for 72 hrs by CCK-8 assay; type: toxicity, cell-based
[20] = system: MCF7; test: Antiproliferative activity against human MCF7 cells; type: functional, cell-based
[21] = system: DU-145; test: Antiproliferative activity against human DU-145 cells; type: functional, cell-based
[22] = system: MCF7; test: Cytotoxicity against human MCF7 cells assessed as reduction in cell viability incubated for 48 hrs by SRB assay; type: functional, cell-based; settings: MCF7, 48 h
[23] = molecular target: T1, Vascular endothelial growth factor receptor 2; test: Inhibition of VEGFR2 in human MCF7 cells by horseradish peroxidase-coupled TMB substrate based ELISA; type: cell-based
[24] = system: MCF7; test: Growth inhibition of human MCF7 cells; type: functional
[25] = system: MCF7; test: Cytotoxicity against human MCF7 cells assessed as reduction in cell viability incubated for 48 hrs by MTT assay; type: functional, cell-based; settings: MCF7, 48 h
[26] = molecular target: T1, Vascular endothelial growth factor receptor 2; test: Inhibition of human VEGFR-2 by ELISA method
[27] = molecular target: T1, Vascular endothelial growth factor receptor 2; test: Inhibition of VEGFR-2 in human MCF7 cells by ELISA method; type: cell-based
[28] = system: HepG2; test: Cytotoxicity against human HepG2 cells assessed as reduction in cell growth by MTT assay; type: functional, cell-based
[29] = system: HCT-116; test: Cytotoxicity against human HCT-116 cells assessed as reduction in cell growth by MTT assay; type: functional, cell-based
[30] = system: MCF7; test: Cytotoxicity against human MCF7 cells assessed as reduction in cell growth by MTT assay; type: functional, cell-based
[31] = system: HCT-116; test: Antiproliferative activity against human HCT-116 cells assessed as reduction in cell viability incubated for 48 hrs by MTT assay; type: functional, cell-based; settings: HCT-116, 48 h
[32] = system: A549; test: Antiproliferative activity against human A549 cells assessed as reduction in cell viability incubated for 48 hrs by MTT assay; type: functional, cell-based; settings: A549, 48 h
[33] = system: UO-31; test: Antiproliferative activity against human UO-31 cells assessed as reduction in cell viability incubated for 48 hrs by MTT assay; type: functional, cell-based; settings: UO-31, 48 h

T1 sequence (P35968 whole entry): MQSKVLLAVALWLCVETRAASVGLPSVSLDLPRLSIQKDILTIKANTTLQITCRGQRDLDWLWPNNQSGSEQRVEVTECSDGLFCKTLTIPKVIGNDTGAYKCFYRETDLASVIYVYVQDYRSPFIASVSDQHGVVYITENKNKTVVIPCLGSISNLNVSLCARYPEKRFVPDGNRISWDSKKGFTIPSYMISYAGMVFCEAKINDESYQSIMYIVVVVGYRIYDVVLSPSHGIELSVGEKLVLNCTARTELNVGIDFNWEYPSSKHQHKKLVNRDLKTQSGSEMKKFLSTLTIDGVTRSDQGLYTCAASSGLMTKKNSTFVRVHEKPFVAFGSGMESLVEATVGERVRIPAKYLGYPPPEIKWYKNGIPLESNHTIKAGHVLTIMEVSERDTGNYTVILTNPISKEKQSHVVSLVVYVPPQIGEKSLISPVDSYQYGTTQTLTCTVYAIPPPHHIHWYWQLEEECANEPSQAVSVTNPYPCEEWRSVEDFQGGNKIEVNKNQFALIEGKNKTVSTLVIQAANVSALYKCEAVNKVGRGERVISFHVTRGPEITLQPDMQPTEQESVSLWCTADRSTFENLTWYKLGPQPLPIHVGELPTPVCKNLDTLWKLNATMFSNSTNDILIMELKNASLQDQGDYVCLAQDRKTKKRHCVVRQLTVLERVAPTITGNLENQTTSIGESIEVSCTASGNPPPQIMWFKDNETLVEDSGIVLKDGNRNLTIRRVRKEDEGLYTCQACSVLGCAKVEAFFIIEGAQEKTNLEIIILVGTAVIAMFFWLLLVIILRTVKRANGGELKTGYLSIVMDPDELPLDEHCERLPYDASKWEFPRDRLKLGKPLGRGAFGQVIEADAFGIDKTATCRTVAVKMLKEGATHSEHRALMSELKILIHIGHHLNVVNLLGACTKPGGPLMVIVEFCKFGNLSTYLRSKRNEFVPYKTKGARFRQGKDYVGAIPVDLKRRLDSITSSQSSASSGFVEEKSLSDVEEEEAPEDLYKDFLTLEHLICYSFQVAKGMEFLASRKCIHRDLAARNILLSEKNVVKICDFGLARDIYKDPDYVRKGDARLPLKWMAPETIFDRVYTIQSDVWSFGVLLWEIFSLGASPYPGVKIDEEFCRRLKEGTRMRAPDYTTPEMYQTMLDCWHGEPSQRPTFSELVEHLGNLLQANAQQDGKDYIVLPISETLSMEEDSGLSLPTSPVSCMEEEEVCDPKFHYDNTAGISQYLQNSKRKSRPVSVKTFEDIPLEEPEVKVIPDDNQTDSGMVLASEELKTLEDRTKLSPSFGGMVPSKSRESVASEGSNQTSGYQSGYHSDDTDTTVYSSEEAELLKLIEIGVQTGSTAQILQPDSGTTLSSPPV

- inhibition [3]: 89.9%
SMILES: Clc1ccc(/C=N/N=C(/c2ccccc2)c2ccc3nc(-c4ccc(Cl)cc4)[nH]c3c2)cc1
- IC50 [1]: 1.88 µM
- IC50 [2]: 0.85 µM

- IC50 [4]: 9.45 µM
- IC50 [5]: 5.76 µM
- IC50 [6]: 7.36 µM
SMILES: Cc1ccc2oc(SCCC(=O)Nc3nnc(-c4ccccc4)s3)nc2c1

- IC50 [7]: 0.091 µM
- IC50 [8]: 5.61 µM
- IC50 [9]: 7.92 µM
- IC50 [10]: 3.84 µM
SMILES: O=C(CN1C(=O)S/C(=C\c2ccc(F)cc2)C1=O)Nc1nc2ccc([N+](=O)[O-])cc2s1

- IC50 [11]: 7.2 µM
- IC50 [12]: 7.8 µM
SMILES: O=C(CSc1nc2ccccc2o1)Nc1ccc(C(=O)NC2CCCCC2)cc1

- IC50 [11]: 3.43 µM
- IC50 [13]: 2.43 µM
- IC50 [12]: 2.79 µM
SMILES: O=C(CSc1nc2ccccc2o1)Nc1ccc(C(=O)Nc2ccc([N+](=O)[O-])cc2)cc1

- inhibition [14]: 34%
SMILES: O=C(OCc1nc2ccccc2[nH]1)c1c[nH]c2ccccc12
- IC50 [15]: 0.19 µM
- IC50 [16]: 0.19 µM
- IC50 at 72 h [17]: 0.56 µM
- IC50 at 72 h [18]: 0.54 µM
- IC50 at 72 h [19]: 0.37 µM

- IC50 [20]: 8.9 µM
- IC50 [21]: 9.2 µM
SMILES: COc1nc(C(=O)Nc2nc3cc(F)ccc3[nH]2)ccc1-n1cnc(C)c1

- inhibition [14]: 36.7%
SMILES: COc1ccc2[nH]cc(C(=O)OCc3nc4ccccc4n3C)c2c1
- IC50 [15]: 0.26 µM
- IC50 [16]: 0.26 µM
- IC50 at 72 h [17]: 0.32 µM
- IC50 at 72 h [18]: 0.3 µM
- IC50 at 72 h [19]: 0.45 µM

- IC50 [4]: 8.75 µM
- IC50 [5]: 9.52 µM
- IC50 [6]: 9.95 µM
SMILES: O=C(CCSc1nc2ccccc2o1)Nc1ccc(S(=O)(=O)NC(=O)Nc2ccccc2)cc1

- IC50 [23]: 0.13 µM
SMILES: COC(=O)COc1ccc(/C=N/NC(=O)COc2ccc(-c3nc4ccccc4s3)cc2OC)cc1OC
- IC50 [22]: 21.9 µM

SMILES: COc1cc(/C=N/NC(=O)c2ccc(-c3nc4cc(C)ccc4[nH]3)cc2)cc(OC)c1OC
- GI [24]: 84.33 µM

- IC50 [26]: 0.0067 µM
- IC50 [27]: 0.0069 µM
SMILES: Clc1cccc(Cl)c1CNc1cccc(-c2nc3ccccc3[nH]2)c1
- IC50 [25]: 6.3 µM

- IC50 [26]: 0.0067 µM
- IC50 [27]: 0.0068 µM
SMILES: O=C(Nc1ccc([N+](=O)[O-])cc1)Nc1cccc(-c2nc3ccccc3[nH]2)c1
- IC50 [25]: 7.18 µM

SMILES: Cc1c(C(=O)NNC(=S)Nc2ccc(Cl)cc2)nnn1Cc1nc2ccccc2[nH]1
- IC50 [28]: 7.8 µM
- IC50 [29]: 8.34 µM
- IC50 [30]: 6.81 µM

- IC50 [4]: 9.95 µM
- IC50 [5]: 12.5 µM
- IC50 [6]: 15.7 µM
SMILES: CCNC(=S)NS(=O)(=O)c1ccc(NC(=O)CCSc2nc3cc(C)ccc3o2)cc1

- IC50 [31]: 9.03 µM
- IC50 [32]: 6.17 µM
SMILES: O=C(CCc1nnc2sc(-c3ccc(Br)cc3)nn12)c1nc2cc([N+](=O)[O-])ccc2[nH]1

- IC50 [11]: 18.2 µM
- IC50 [13]: 7.01 µM
SMILES: Cc1ccc2oc(SCC(=O)Nc3ccc(C(=O)Nc4ccc(O)cc4)cc3)nc2c1

SMILES: Cc1ccc2[nH]c(-c3ccc(C(=O)N/N=C/c4ccc(Cl)cc4Cl)cc3)nc2c1
- GI [24]: 30.51 µM

- IC50 [11]: 15.2 µM
- IC50 [13]: 10.5 µM
SMILES: Cc1ccc2oc(SCC(=O)Nc3ccc(C(=O)Nc4cccc(Cl)c4)cc3)nc2c1

SMILES: O=C(CCc1nnc2sc(COc3ccccc3)nn12)c1nc2cc([N+](=O)[O-])ccc2[nH]1
- IC50 [33]: 32.9 µM
